Measurements as given in US10856562B2, “Flavor composition and edible compositions containing same” (MARS, INCORPORATED, priority 2013, dated 2020).
Square brackets hold non-standard residues; d marks the D form. Ends that are not written are not given here. pGlu = O=C1CC[C@@H](C(=O)O)N1

Legend:
panel of trained tasters = experiment: Saltiness of 25% sodium-reduced food products with peptides, panel of trained tasters; type: in vivo, human
Description: Food product compositions were prepared by admixing flavor composition peptide(s) of the present application with food compositions, wherein the level of sodium (NaCl) in the food product compositions was reduced. The level of sodium was reduced by 25%, 50% or 75% compared to food products compositions that were not admixed with flavor composition peptides. The food product compositions comprising the flavor composition peptides were tasted by a panel of trained tasters and the level of saltiness was compared to the control food products.
The peptides pGlu-Val-Leu (identified as “SE-13”), pGlu-Val-Cys (identified as “UE-30”), pGlu-Val-Val (identified as “SE-17”) and pGlu-Cys-Cys (identified as “FE-37”) were tested in cottage cheese, tortilla chips, ketchup, cream of mushroom soup, alfredo sauce, sausage, mixed nuts, peanuts, soy sauce and chicken broth. The level of sodium in the test food products comprising the peptides was reduced by 25% compared to the control food products.

panelists = experiment: Consensus attribute scores of flavor enhancers in Uncle Ben's Garden Vegetable Ready rice; type: in vivo, human; set-up: key to Cooked White Rice / Vegetable Oil / Vegetable Complex / Cooked Green Vegetable / Cooked Corn / Sweet (BASIC TASTES) / Salt (BASIC TASTES) / Mouthdrying (Texture) / Residual Mouthcoating (Texture) / Total Aromatics / Bitter (BASIC TASTES): 15-point scale, 0 = none, 15 = very strong; settings: for Black Pepper / Cooked Corn / Cooked Green Vegetable / Cooked White Rice / Dehydrated onion/garlic / HVP/Brothy / Mineral/Flint / Mouthdrying (Texture) / Residual Mouthcoating (Texture) / Salt (BASIC TASTES) / Salt Burn (Chemical Feeling Factors) / Sweet (BASIC TASTES) / Total Aromatics / Umami (Chemical Feeling Factors) / Vegetable Complex / Vegetable Oil: rice
Description: Descriptive attributes (e.g., taste, flavor and chemical feeling factors) of three use levels of pGlu-Cys (FE-35), pGlu-Cys-Gly (FE-36), pGlu-Cys-Cys (FE-37), pGlu-Cys-Val (FE-38) and pGlu-Val-Cys (UE-30) flavor composition peptides were determined. The three use levels were as follows: 1.0 ppb, 10.0 ppb and 100.0 ppb.
Data was collected for the attributes of the product in-mouth for the use levels according to the following protocol: • The samples were analyzed for flavor by six to nine members of a panel, trained and experienced in flavor evaluation using the Spectrum™ method. Samples were evaluated across multiple panel sessions. • The strength of each attribute was rated on a 15-point scale, where 0=none and 15=very strong. • This scale incorporates the ability to use tenths of a point and therefore has the potential of 150 scale differentiations. • The scale may be expanded beyond 15 points to include extreme ratings if necessary.
Preparation of Rice Samples • Each flavor enhancer was tested in Uncle Ben's Garden Vegetable Ready rice matrix at 3 different concentrations: 1 ppb, 10 ppb and 100 ppb. A total of 15 points with flavor enhancers were prepared for sensory evaluation. Additionally, 15 control samples were prepared. Each point had 2 samples (test and control) and was made from one pouch of rice. • Directions to prepare the solutions: • The 15 ready- to eat pouches were microwaved according to the procedure found on the back of the pouch: (1) squeeze pouch to separate rice, (2) tear two inches to vent, (3) heat on High for 90 seconds and (4) remove from microwave using COOL TOUCH area on untorn side. • From each pouch 124.75 g (test sample) and 99.8 g (control) were weighed out. The test sample had the flavor enhancer and/or salt. The control sample only had salt added. • The flavor enhancer and/or salt (non-iodized salt) were weighed in a soufflé cup. The weighed amount of flavor enhancer and/or salt was added to the sub-sampled rice. The rice was stirred and mixed to evenly distribute the salt added. • Some rice was placed back into the soufflé cup, sealed, and the cup was shook to get the flavor enhancer and/or salt that may have been stuck on the walls of the soufflé cup. After shaking the soufflé cup, the rice was added back to the original sub-sampled rice and stirred/mixed again. • Each sample (test and control) was microwaved for another 30 seconds (or until warm) to ensure that the salts/compounds were going completely into the solutions. • All samples (test and control) were tasted at the same temperature. • Each test sample had 0.2% NaCl added and flavor enhancers at the specified concentrations.
A summary of the concentrations of NaCl and flavor composition peptides in the rice samples is described in table 23. The first value of each cell represents a single sample amount of an ingredient in milligrams, and the second number in parenthesis is a doubling of the ingredient (in grams) for use in a doubled size sample.
The panelists evaluated each sample for the attributes described by table 25.

In the case of [pGlu]-Val-Val [SE-17], the “Saltiness compared to control” value (panel of trained tasters; Chicken Broth, control 860 mg, test 645 mg Na, 10 ppb each, n=4) is reported as “Test samples saltier than”, the “Saltiness/flavor compared to control” value (panel of trained tasters; Cottage Cheese, control 350 mg, test 262 mg Na, 10 ppb each, n=4) is reported as “Test samples notably less” and the “Preference among test samples” value (panel of trained tasters; Cottage Cheese, test 262 mg Na, compared to SE-13 and SE-13 + UE-30) is reported as “combination preferred”.

For [pGlu]-Val-Cys [UE-30], the Mouthdrying in rice (panelists; 10 and 100 ppb) was “low mouthdrying”, the “Cooked green vegetable in rice compared to the Control” value (panelists; all samples (1, 10, 100 ppb)) was “low level of cooked green vegetable” and the “Salt burn feeling factor in rice compared to the Control” value (panelists; all samples (1, 10, 100 ppb)) was “higher”. The “Salt in rice compared to the Control” value (panelists; all samples (1, 10, 100 ppb)) was “saltier than the Control”, the “Umami feeling factor in rice compared to the Control” value (panelists; all samples (1, 10, 100 ppb)) was “higher” and the “Black Pepper” value (panelists; 1.0 ppb (5 ppm)) was 1.3. For the same substance, the “Cooked Corn” value (panelists; 1.0 ppb (5 ppm)) was 0.8, the “Cooked Green Vegetable” value (panelists; 1.0 ppb (5 ppm)) was 0.8 and the “Cooked White Rice” value (panelists; 1.0 ppb (5 ppm)) was 3.0. The Dehydrated onion/garlic (panelists; 1.0 ppb (5 ppm)) was 1.0, the HVP/Brothy (panelists; 1.0 ppb (5 ppm)) was 1.5 and the Mineral/Flint (panelists; 1.0 ppb (5 ppm)) was 0.0. The “Mouthdrying (Texture)” value (panelists; 1.0 ppb (5 ppm)) was 0.0, the “Residual Mouthcoating (Texture)” value (panelists; 1.0 ppb (5 ppm)) was 1.0 and the “Salt (BASIC TASTES)” value (panelists; 1.0 ppb (5 ppm)) was 15.0. The “Salt Burn (Chemical Feeling Factors)” value (panelists; 1.0 ppb (5 ppm)) was 1.0, the “Sweet (BASIC TASTES)” value (panelists; 1.0 ppb (5 ppm)) was 3.0 and the “Total Aromatics” value (panelists; 1.0 ppb (5 ppm)) was 6.8. For the same substance, the “Umami (Chemical Feeling Factors)” value (panelists; 1.0 ppb (5 ppm)) was 1.5, the “Vegetable Complex” value (panelists; 1.0 ppb (5 ppm)) was 1.5 and the “Vegetable Oil” value (panelists; 1.0 ppb (5 ppm)) was 0.8. For the same substance, the “Black Pepper” value (panelists; 10.0 ppb (50 ppm)) was 1.5, the “Cooked Corn” value (panelists; 10.0 ppb (50 ppm)) was 1.0 and the “Cooked Green Vegetable” value (panelists; 10.0 ppb (50 ppm)) was 1.0. The “Cooked White Rice” value (panelists; 10.0 ppb (50 ppm)) was 3.0, the Dehydrated onion/garlic (panelists; 10.0 ppb (50 ppm)) was 1.0 and the HVP/Brothy (panelists; 10.0 ppb (50 ppm)) was 1.5. The Mineral/Flint (panelists; 10.0 ppb (50 ppm)) was 0.5, the “Mouthdrying (Texture)” value (panelists; 10.0 ppb (50 ppm)) was 1.8 and the “Residual Mouthcoating (Texture)” value (panelists; 10.0 ppb (50 ppm)) was 1.0. For the same substance, the “Salt (BASIC TASTES)” value (panelists; 10.0 ppb (50 ppm)) was 15.0, the “Salt Burn (Chemical Feeling Factors)” value (panelists; 10.0 ppb (50 ppm)) was 0.8 and the “Sweet (BASIC TASTES)” value (panelists; 10.0 ppb (50 ppm)) was 3.5. For the same substance, the “Total Aromatics” value (panelists; 10.0 ppb (50 ppm)) was 6.8, the “Umami (Chemical Feeling Factors)” value (panelists; 10.0 ppb (50 ppm)) was 2.0 and the “Vegetable Complex” value (panelists; 10.0 ppb (50 ppm)) was 1.8. For the same substance, the “Vegetable Oil” value (panelists; 10.0 ppb (50 ppm)) was 0.8, the “Black Pepper” value (panelists; 100 ppb (50 ppm)) was 1.5 and the “Cooked Corn” value (panelists; 100 ppb (50 ppm)) was 1.0. The “Cooked Green Vegetable” value (panelists; 100 ppb (50 ppm)) was 1.0, the “Cooked White Rice” value (panelists; 100 ppb (50 ppm)) was 3.0 and the Dehydrated onion/garlic (panelists; 100 ppb (50 ppm)) was 1.0. For the same substance, the HVP/Brothy (panelists; 100 ppb (50 ppm)) was 1.5, the Mineral/Flint (panelists; 100 ppb (50 ppm)) was 0.5 and the “Mouthdrying (Texture)” value (panelists; 100 ppb (50 ppm)) was 1.5. The “Residual Mouthcoating (Texture)” value (panelists; 100 ppb (50 ppm)) was 1.5, the “Salt (BASIC TASTES)” value (panelists; 100 ppb (50 ppm)) was 16.0 and the “Salt Burn (Chemical Feeling Factors)” value (panelists; 100 ppb (50 ppm)) was 1.3. For the same substance, the “Sweet (BASIC TASTES)” value (panelists; 100 ppb (50 ppm)) was 3.5, the “Total Aromatics” value (panelists; 100 ppb (50 ppm)) was 6.8 and the “Umami (Chemical Feeling Factors)” value (panelists; 100 ppb (50 ppm)) was 3.0. The “Vegetable Complex” value (panelists; 100 ppb (50 ppm)) was 1.8 and the “Vegetable Oil” value (panelists; 100 ppb (50 ppm)) was 0.5.
